# ChEMBL document CHEMBL5724914, “Linking interpersonal differences in gut microbiota composition and drug biotransformation activity” (2024)
# What was measured:
# [1] = human gut metagenome, 24 h, 2 µM
# [2] = (§1) The drug is tested on WLS-350 corresponding to human gut metagenome with ENA study accession number: PRJEB37062 and ENA sample accession number: ERS12561789 for biotransformation under anaerobic condition. The drug concentrations were measured over 9 timepoints collected between 0 and 24 hours of incubation by liquid-chromatography-coupled mass spectrometry (LC–MS); details: 2 µM
# [3] = human gut metagenome, 24 h, 2 µM; remark: listed apart in the source
# [4] = human gut metagenome, 24 h, 2 µM; remark: listed apart in the source
# [5] = as §1, with “Z-004” for “WLS-350”, “to” for “to human gut”, “ERS12561804” for “ERS12561789”; details: 2 µM
# [6] = as §1, with “Z-030” for “WLS-350”, “mouse” for “human”, “ERS12561829” for “ERS12561789”; details: 2 µM
# [7] = human gut metagenome, 24 h, 2 µM; remark: listed apart in the source
# [8] = human gut metagenome, 24 h, 2 µM; remark: listed apart in the source
# [9] = as §1, with “WLS-082” for “WLS-350”, “ERS12561751” for “ERS12561789”; details: 2 µM
# [10] = as §1, with “Z-020” for “WLS-350”, “rabbit” for “human”, “ERS12561819” for “ERS12561789”; details: 2 µM
# [11] = as §1, with “Z-005” for “WLS-350”, “to” for “to human gut”, “ERS12561805” for “ERS12561789”; details: 2 µM
# [12] = human gut metagenome, 24 h, 2 µM; remark: listed apart in the source
# [13] = human gut metagenome, 24 h, 2 µM; remark: listed apart in the source
# [14] = as §1, with “WLS-073” for “WLS-350”, “ERS12561749” for “ERS12561789”; details: 2 µM
# [15] = human gut metagenome, 24 h, 2 µM; remark: listed apart in the source
# [16] = human gut metagenome, 24 h, 2 µM; remark: listed apart in the source
# [17] = as §1, with “Z-025” for “WLS-350”, “rabbit” for “human”, “ERS12561824” for “ERS12561789”; details: 2 µM
# [18] = human gut metagenome, 24 h, 2 µM; remark: listed apart in the source
# [19] = as §1, with “WLS-006” for “WLS-350”, “ERS12561741” for “ERS12561789”; details: 2 µM
# [20] = human gut metagenome, 24 h, 2 µM; remark: listed apart in the source
# Also: call rule not given here.
SMILES,Bacterial Biotransformation [1],Bacterial Biotransformation [2],Bacterial Biotransformation [3],Bacterial Biotransformation [4],Bacterial Biotransformation [5],Bacterial Biotransformation [6],Bacterial Biotransformation [7],Bacterial Biotransformation [8],Bacterial Biotransformation [9],Bacterial Biotransformation [10],Bacterial Biotransformation [11],Bacterial Biotransformation [12],Bacterial Biotransformation [13],Bacterial Biotransformation [14],Bacterial Biotransformation [15],Bacterial Biotransformation [16],Bacterial Biotransformation [17],Bacterial Biotransformation [18],Bacterial Biotransformation [19],Bacterial Biotransformation [20]
CCN1CCCC1CNC(=O)c1cc(S(N)(=O)=O)ccc1OC (stereo not given) [SULPIRIDE],Compound metabolized,Compound NOT metabolized,Compound NOT metabolized,Compound NOT metabolized,Compound metabolized,Compound NOT metabolized,Compound NOT metabolized,Compound metabolized,Compound NOT metabolized,Compound NOT metabolized,Compound NOT metabolized,Compound NOT metabolized,Compound NOT metabolized,Compound NOT metabolized,Compound NOT metabolized,Compound metabolized,Compound NOT metabolized,Compound NOT metabolized,Compound metabolized,Compound metabolized
CNS(=O)(=O)Cc1ccc2[nH]cc(CCN(C)C)c2c1.O=C(O)CCC(=O)O [SUMATRIPTAN SUCCINATE],Compound NOT metabolized,Compound NOT metabolized,Compound NOT metabolized,Compound NOT metabolized,Compound NOT metabolized,Compound NOT metabolized,Compound NOT metabolized,Compound NOT metabolized,Compound NOT metabolized,Compound NOT metabolized,Compound NOT metabolized,Compound NOT metabolized,Compound NOT metabolized,Compound NOT metabolized,Compound NOT metabolized,Compound metabolized,Compound NOT metabolized,Compound NOT metabolized,Compound NOT metabolized,Compound metabolized
Nc1c2c(nc3ccccc13)CCCC2 [TACRINE],Compound metabolized,Compound NOT metabolized,Compound NOT metabolized,Compound metabolized,Compound NOT metabolized,Compound NOT metabolized,Compound NOT metabolized,Compound NOT metabolized,Compound NOT metabolized,Compound NOT metabolized,Compound NOT metabolized,Compound NOT metabolized,Compound NOT metabolized,Compound NOT metabolized,Compound NOT metabolized,Compound metabolized,Compound NOT metabolized,Compound NOT metabolized,Compound NOT metabolized,Compound metabolized
Cc1ccc(S(=O)(=O)NC(=O)NN2CCCCCC2)cc1 [TOLAZAMIDE],Compound metabolized,Compound NOT metabolized,Compound NOT metabolized,Compound metabolized,Compound metabolized,Compound NOT metabolized,Compound metabolized,Compound metabolized,Compound metabolized,Compound NOT metabolized,Compound metabolized,Compound metabolized,Compound NOT metabolized,Compound metabolized,Compound metabolized,Compound metabolized,Compound metabolized,Compound NOT metabolized,Compound metabolized,Compound metabolized
CCOC(=O)[C@H](CCc1ccccc1)N[C@@H](C)C(=O)N1[C@H](C(=O)O)C[C@H]2CCCC[C@@H]21 [TRANDOLAPRIL],Compound metabolized,Compound NOT metabolized,Compound NOT metabolized,Compound metabolized,Compound metabolized,Compound NOT metabolized,Compound metabolized,Compound metabolized,Compound metabolized,Compound metabolized,Compound metabolized,Compound NOT metabolized,Compound NOT metabolized,Compound metabolized,Compound metabolized,Compound metabolized,Compound NOT metabolized,Compound NOT metabolized,Compound metabolized,Compound metabolized
CC(CN(C)C)CN1c2ccccc2CCc2ccccc21.O=C(O)/C=C\C(=O)O (stereo not given) [TRIMIPRAMINE MALEATE],Compound metabolized,Compound NOT metabolized,Compound metabolized,Compound NOT metabolized,Compound NOT metabolized,Compound NOT metabolized,Compound metabolized,Compound metabolized,Compound metabolized,Compound NOT metabolized,Compound NOT metabolized,Compound metabolized,Compound NOT metabolized,Compound NOT metabolized,Compound NOT metabolized,Compound metabolized,Compound NOT metabolized,Compound metabolized,Compound metabolized,Compound metabolized
CC(=O)CC(c1ccccc1)c1c(O)c2ccccc2oc1=O (stereo not given) [WARFARIN],Compound metabolized,Compound metabolized,Compound NOT metabolized,Compound metabolized,Compound metabolized,Compound NOT metabolized,Compound metabolized,Compound metabolized,Compound metabolized,Compound metabolized,Compound NOT metabolized,Compound metabolized,Compound NOT metabolized,Compound NOT metabolized,Compound metabolized,Compound metabolized,Compound metabolized,Compound metabolized,Compound metabolized,Compound metabolized
Cc1ccc(-c2nc3ccc(C)cn3c2CC(=O)N(C)C)cc1 [ZOLPIDEM],Compound metabolized,Compound NOT metabolized,Compound NOT metabolized,Compound NOT metabolized,Compound NOT metabolized,Compound NOT metabolized,Compound metabolized,Compound NOT metabolized,Compound NOT metabolized,Compound NOT metabolized,Compound NOT metabolized,Compound NOT metabolized,Compound NOT metabolized,Compound NOT metabolized,Compound NOT metabolized,Compound NOT metabolized,Compound NOT metabolized,Compound NOT metabolized,Compound NOT metabolized,Compound metabolized
